# Measured values reported in US20230219986A1, “NOVEL AMINOPYRIMIDINE EGFR INHIBITOR” (QILU PHARMACEUTICAL CO., LTD., priority 2020, published 2023).
# What was measured:
# [1] = biological target: T1, L858R/T790M/C797S triple mutant EGFR (Homo sapiens, UniProt P00533, C797S/L858R/T790M); test: Enzymology experiment in vitro (HTRF/FRET kinase activity), L858R/T790M/C797S triple mutant EGFR; format: biochemical; conditions: HTRF KinEASE-TK, read-out: EGFR (L858R/T790M/C797S) IC50
# T1 construct: purchased Signalchem
# T1 sequence (P00533 25-1210 T790M/C797S/L858R): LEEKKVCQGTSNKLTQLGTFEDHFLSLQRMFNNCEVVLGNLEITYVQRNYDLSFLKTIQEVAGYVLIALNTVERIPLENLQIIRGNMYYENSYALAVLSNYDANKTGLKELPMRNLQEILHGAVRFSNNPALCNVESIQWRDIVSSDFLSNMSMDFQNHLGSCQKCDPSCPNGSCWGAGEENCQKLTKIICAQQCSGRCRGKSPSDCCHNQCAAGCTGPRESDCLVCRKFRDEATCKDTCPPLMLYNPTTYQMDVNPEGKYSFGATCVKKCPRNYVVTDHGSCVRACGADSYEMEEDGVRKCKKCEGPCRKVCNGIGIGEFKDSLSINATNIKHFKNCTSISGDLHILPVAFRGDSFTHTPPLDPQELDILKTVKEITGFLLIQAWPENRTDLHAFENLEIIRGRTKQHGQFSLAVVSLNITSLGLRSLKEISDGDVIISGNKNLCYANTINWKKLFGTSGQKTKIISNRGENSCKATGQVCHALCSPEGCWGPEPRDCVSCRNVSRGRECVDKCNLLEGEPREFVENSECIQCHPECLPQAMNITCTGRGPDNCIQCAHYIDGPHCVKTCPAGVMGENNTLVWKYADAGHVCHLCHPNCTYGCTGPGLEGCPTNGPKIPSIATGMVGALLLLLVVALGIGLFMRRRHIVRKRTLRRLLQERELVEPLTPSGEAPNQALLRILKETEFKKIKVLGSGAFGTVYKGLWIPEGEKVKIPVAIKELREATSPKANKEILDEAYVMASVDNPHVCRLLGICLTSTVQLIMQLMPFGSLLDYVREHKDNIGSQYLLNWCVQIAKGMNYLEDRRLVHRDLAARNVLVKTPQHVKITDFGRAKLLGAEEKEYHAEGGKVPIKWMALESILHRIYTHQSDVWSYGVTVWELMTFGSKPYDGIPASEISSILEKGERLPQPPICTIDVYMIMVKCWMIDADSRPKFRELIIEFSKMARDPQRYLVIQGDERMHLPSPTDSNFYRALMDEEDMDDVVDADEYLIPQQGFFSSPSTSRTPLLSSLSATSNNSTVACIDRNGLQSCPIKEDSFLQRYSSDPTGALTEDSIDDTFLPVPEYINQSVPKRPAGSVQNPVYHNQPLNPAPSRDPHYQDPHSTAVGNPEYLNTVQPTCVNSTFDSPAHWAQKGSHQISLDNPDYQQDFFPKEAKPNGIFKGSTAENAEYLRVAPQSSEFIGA
# In short: (§1)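 Kinase reaction run 40 min at room temperature with peptide and ATP after a 10 min compound–enzyme preincubation. Phosphorylation read as HTRF signal after 1 h with Eu³⁺ antibody, XL665-streptavidin and EDTA (Cisbio KinEASE-TK).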
# wild-type EGFR = biological target: T2, wild-type EGFR (Homo sapiens, UniProt P00533); test: Enzymology experiment in vitro (HTRF/FRET kinase activity), wild-type EGFR; format: biochemical; conditions: HTRF KinEASE-TK, read-out: EGFR (WT) IC50
# T2 construct: purchased Signalchem
# T2 sequence (P00533 25-1210): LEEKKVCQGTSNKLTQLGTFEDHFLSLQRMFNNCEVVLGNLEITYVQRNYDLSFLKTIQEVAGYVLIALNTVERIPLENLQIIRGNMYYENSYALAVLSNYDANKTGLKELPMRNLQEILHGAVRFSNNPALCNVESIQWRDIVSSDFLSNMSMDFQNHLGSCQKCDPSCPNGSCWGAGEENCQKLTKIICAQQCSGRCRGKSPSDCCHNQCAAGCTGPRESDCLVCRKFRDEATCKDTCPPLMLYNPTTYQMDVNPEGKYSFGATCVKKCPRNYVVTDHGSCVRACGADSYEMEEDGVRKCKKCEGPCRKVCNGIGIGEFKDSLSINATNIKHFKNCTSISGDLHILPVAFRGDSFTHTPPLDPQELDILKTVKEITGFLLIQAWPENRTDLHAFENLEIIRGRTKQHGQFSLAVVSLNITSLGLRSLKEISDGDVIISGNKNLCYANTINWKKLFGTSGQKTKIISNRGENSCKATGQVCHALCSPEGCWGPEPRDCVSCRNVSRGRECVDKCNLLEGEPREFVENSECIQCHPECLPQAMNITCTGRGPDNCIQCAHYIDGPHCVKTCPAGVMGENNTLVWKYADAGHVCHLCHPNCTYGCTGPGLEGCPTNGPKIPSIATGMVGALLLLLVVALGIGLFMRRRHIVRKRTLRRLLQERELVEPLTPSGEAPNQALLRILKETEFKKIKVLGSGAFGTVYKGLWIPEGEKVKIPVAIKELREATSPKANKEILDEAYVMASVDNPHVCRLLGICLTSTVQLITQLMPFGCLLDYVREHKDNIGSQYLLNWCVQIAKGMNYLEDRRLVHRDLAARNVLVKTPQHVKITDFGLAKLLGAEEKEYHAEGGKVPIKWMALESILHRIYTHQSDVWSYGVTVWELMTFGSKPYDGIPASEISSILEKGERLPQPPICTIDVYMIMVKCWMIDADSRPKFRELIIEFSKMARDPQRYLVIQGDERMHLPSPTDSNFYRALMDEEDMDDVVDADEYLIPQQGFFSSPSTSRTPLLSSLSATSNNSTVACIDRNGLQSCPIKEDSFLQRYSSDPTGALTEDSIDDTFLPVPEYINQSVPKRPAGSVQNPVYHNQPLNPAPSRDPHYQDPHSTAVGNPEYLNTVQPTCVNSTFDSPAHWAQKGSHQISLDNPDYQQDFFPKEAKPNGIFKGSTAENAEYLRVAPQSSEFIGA
# In short: as §1
# [2] = system: EGFR wild-type cell line A431; test: Cell proliferation inhibition experiment (CellTiter-Glo), A431; format: cell-based; conditions: Homo sapiens, A-431, 72 h, A431 cells, Cell Titer-Glo, read-out: A431 EGFR WT IC50
# In short: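 Luminescent CellTiter-Glo readout, 30 min at room temperature, after 72 h compound exposure at 37° C., 5% CO2 with 0.1% DMSO final. EGFR wild-type A431 cells were seeded at 800 per well and grown 24 h before dosing. IC50 derived from the dose-response.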
# [3] = biological target: Ba/F3 De119/T790M/C797S EGFR triple mutant cell line (Homo sapiens, UniProt P00533, T790M/C797S, cells depend on it, form not given); test: Cell proliferation inhibition experiment (CellTiter-Glo), Ba/F3 De119/T790M/C797S; format: cell-based; conditions: Ba/F3 Del19/T790M/C797S EGFR triple mutant cells, 72 hours, Cell Titer-Glo; read-out: Ba/F3 (Del19/T790M/C797S) IC50
# Chain of Ba/F3 De119/T790M/C797S EGFR triple mutant cell line (P00533 with tags, fused parts or gaps DEL746-750/T790M/C797S, form open): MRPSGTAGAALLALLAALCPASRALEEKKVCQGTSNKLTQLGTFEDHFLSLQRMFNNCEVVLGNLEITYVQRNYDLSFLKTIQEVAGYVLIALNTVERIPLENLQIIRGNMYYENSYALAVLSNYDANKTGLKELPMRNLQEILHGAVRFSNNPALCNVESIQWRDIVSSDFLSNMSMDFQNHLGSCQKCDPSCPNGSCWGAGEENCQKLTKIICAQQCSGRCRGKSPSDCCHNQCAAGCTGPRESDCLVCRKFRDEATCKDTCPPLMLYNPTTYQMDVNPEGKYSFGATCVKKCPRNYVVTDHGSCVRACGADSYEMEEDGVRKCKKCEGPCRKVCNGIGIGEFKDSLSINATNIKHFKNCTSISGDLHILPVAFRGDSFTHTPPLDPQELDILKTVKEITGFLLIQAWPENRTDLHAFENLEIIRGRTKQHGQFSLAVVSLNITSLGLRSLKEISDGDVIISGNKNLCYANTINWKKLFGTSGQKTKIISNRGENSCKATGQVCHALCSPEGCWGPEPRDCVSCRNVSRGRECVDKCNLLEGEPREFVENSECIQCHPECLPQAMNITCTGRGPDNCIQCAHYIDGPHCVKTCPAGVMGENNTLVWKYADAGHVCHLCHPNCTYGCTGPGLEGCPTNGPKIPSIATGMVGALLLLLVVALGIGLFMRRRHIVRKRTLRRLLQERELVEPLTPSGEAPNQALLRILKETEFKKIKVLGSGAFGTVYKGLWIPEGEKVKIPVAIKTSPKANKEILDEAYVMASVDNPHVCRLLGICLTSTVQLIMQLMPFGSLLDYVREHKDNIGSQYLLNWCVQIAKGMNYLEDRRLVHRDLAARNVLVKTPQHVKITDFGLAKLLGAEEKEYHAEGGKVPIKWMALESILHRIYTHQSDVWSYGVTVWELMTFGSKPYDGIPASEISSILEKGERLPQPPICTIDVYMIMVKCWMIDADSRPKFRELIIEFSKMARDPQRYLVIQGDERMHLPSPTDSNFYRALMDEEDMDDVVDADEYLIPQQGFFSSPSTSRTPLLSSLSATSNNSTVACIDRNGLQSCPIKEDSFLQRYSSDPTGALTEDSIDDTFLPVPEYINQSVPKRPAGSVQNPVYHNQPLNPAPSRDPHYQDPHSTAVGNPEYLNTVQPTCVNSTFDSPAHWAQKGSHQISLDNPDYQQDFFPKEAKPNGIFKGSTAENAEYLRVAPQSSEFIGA
# [4] = biological target: Ba/F3 L858R/T790M/C797S EGFR triple mutant cell line (Homo sapiens, UniProt P00533, T790M/C797S/L858R, cells depend on it); test: Cell proliferation inhibition experiment (CellTiter-Glo), Ba/F3 L858R/T790M/C797S; format: cell-based; conditions: 72 hours, Cell Titer-Glo, read-out: Ba/F3 (L858R/T790M/C797S) IC50
# Chain of Ba/F3 L858R/T790M/C797S EGFR triple mutant cell line (P00533 whole entry T790M/C797S/L858R): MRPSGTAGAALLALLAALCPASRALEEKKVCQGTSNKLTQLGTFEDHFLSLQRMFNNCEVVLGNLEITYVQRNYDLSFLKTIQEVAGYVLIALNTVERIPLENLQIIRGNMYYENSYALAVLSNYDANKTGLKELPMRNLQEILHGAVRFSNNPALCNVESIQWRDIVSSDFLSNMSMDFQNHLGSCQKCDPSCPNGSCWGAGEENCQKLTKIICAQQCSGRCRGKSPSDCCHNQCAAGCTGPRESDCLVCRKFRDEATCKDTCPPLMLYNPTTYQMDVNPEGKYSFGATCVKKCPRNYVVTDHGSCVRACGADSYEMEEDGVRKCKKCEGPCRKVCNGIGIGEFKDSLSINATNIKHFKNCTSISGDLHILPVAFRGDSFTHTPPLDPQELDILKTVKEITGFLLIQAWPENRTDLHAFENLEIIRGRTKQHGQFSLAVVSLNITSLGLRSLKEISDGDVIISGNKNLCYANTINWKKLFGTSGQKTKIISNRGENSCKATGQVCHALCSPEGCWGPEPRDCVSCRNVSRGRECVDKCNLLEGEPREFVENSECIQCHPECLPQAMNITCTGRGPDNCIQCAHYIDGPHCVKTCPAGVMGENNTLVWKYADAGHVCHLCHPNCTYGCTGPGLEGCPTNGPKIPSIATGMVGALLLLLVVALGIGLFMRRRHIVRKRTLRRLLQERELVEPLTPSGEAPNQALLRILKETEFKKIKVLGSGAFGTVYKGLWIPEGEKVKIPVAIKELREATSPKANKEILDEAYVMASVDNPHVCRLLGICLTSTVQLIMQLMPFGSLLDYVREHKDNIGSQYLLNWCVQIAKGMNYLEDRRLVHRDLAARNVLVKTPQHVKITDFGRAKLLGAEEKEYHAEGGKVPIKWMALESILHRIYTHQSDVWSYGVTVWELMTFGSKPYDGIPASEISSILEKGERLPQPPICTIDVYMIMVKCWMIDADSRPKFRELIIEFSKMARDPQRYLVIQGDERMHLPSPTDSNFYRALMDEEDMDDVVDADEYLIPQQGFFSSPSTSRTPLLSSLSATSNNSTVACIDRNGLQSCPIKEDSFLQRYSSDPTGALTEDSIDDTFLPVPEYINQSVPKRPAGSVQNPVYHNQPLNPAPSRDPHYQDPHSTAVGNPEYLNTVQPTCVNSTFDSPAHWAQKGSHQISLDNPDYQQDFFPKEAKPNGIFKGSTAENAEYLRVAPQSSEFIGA
SMILES,IC50 [1] [nM],IC50 (wild-type EGFR) [nM],IC50 [2] [nM],GI50 [3] [nM],GI50 [4] [nM]
CN1CCC2(CC1)CCN(c1nc(OCC(F)(F)F)c(Nc3ncc(Br)c(Nc4ccc5nccnc5c4P(C)(C)=O)n3)cc1-c1cnn(C)c1)CC2 [compound 87],0.35,3.47,178,5.89,14.2
COc1cc(F)c(-c2cnn(C)c2)cc1Nc1ncc(Br)c(Nc2ccc3nccnc3c2P(C)(C)=O)n1 [compound 84],0.33,16.6,392,12.5,20.7
COc1cc(N2CC3CC2CN3C)c(-c2cnn(C)c2)cc1Nc1ncc(Br)c(Nc2ccc3nccnc3c2P(C)(C)=O)n1 (stereo not shown) [compound 11],0.07,12.1,159,83.4,224
"COc1cc(N2CCOCC2)c(-c2cnn(C)c2)cc1Nc1ncc(C2CC2)c(Nc2ccc3nccnc3c2P(C)(C)=O)n1 [Compound 41, (6-((5-cyclopropyl-2-((2-methoxy-5-(1-methyl-1H-pyrazol-4-yl)-4-morpholinylphenyl)amino)pyrimidin-4-yl)amino)quinoxalin-5-yl)dimethylphosphine oxide]",0.31,21.1,371,8.64,34.5
"Cn1cc(-c2cc(Nc3ncc(Br)c(Nc4ccc5nccnc5c4P(C)(C)=O)n3)c3c(c2)OCO3)cn1 [Compound 82, (6-((5-bromo-2-((6-(1-methyl-1H-pyrazol-4-yl)benzo[d][1,3]dioxol-4-yl)amino)pyrimidin-4-yl)amino)quinoxalin-5-yl)dimethylphosphine oxide]",0.28,18.2,180,7.85,21.7
COc1cc(N2CCC3CCN(CC4CC4)C3C2)c(-c2cnn(C)c2)cc1Nc1ncc(Br)c(Nc2ccc3nccnc3c2P(C)(C)=O)n1 (stereo not shown) [compound 227],0.59,2.69,34.7,2.78,6.64
COc1cc(N2CCC(OC)CC2)c(-c2cnn(C)c2)cc1Nc1ncc(Br)c(Nc2ccc3nccnc3c2P(C)(C)=O)n1 [compound 26],0.49,5.75,152,1.22,4.25
COc1cc(N2CCC(N3CCO[C@H](C)C3)CC2)c(-c2cnn(C)c2)cc1Nc1ncc(Br)c(Nc2ccc3nccnc3c2P(C)(C)=O)n1 [compound 163],0.28,1.89,71.8,0.62,1.97
"COc1cc(N2CCOCC2)c(-c2cnn(C)c2)cc1Nc1ncc(Br)c(Nc2cc3c(cc2N(C)S(C)(=O)=O)CC3)n1 [compound 147, N-(4-((5-bromo-2-((2-methoxy-5-(1-methyl-1H-pyrazol-4-yl)-4-morpholinylphenyl)amino)pyrimidin-4-yl)amino)bicyclo[4.2.0]octa-1,3,5-trien-3-yl)-N-methylmethanesulfonamide]",1.16,53,475,1.3,2.93
"COc1cc(N2CCOCC2)c(-c2cnn(S(=O)(=O)C3CC3)c2)cc1Nc1ncc(Br)c(Nc2ccc3nccnc3c2P(C)(C)=O)n1 [Compound 8, (6-((5-bromo-2-((5-(1-(cyclopropylsulfonyl)-1H-pyrazol-4-yl)-2-methoxy-4-morpholinylphenyl)amino)pyrimidin-4-yl)amino)quinoxalin-5-yl)dimethylphosphine oxide]",3.19,358,769,69,137
COc1cc(N2CCC(N3CCN(C)C(C)C3)CC2)c(-c2cnn(C)c2)cc1Nc1ncc(Br)c(Nc2ccc3nccnc3c2P(C)(C)=O)n1 (stereo not shown) [compound 193],0.27,0.99,59.9,4.48,9.83
Cn1cc(-c2cc(Nc3ncc(Br)c(Nc4ccc5nccnc5c4P(C)(C)=O)n3)c(OCC(F)(F)F)nc2N2CCOCC2)cn1 [compound 34],0.27,15.2,462,2.04,8.94
[2H]C1([2H])OC([2H])([2H])C([2H])([2H])N(c2cc(OC)c(Nc3ncc(C)c(Nc4ccc5nccnc5c4P(C)(C)=O)n3)cc2-c2cnn(C)c2)C1([2H])[2H] [compound 141],0.18,1.14,194,2.26,5.16
COc1cc(N2CCOCC2)c(-c2ccn(C)n2)cc1Nc1ncc(Br)c(Nc2ccc3nccnc3c2P(C)(C)=O)n1 [compound 140],5.44,94.6,3670,29.8,62
COc1cc(N2CCOCC2)c(-c2cnn(C)c2)cc1Nc1ncc(C)c(Nc2ccc3nccnc3c2P(C)(C)=O)n1 [compound 4],0.28,1.41,194,2.38,13.6
COc1cc(NC(C)C(F)(F)F)c(-c2cnn(C)c2)cc1Nc1ncc(Br)c(Nc2ccc3nccnc3c2P(C)(C)=O)n1 (stereo not shown) [compound 154],0.86,36.9,469,5.26,15.4
COc1cc(N2CCC(N3CCO[C@@H](C)C3)CC2)c(-c2cnn(C)c2)cc1Nc1ncc(Br)c(Nc2ccc3nccnc3c2P(C)(C)=O)n1 [compound 165],0.69,1.36,70.2,0.8,2.62
COC[C@H]1CN(c2cc(OC)c(Nc3ncc(Br)c(Nc4ccc5nccnc5c4P(C)(C)=O)n3)cc2-c2cnn(C)c2)CCO1 [compound 152],0.35,4.24,133,1.06,4.59
COc1cc(N2CCOCC2)c(-c2cnn(C)c2)cc1Nc1ncc(C(F)(F)F)c(Nc2ccc3nccnc3c2P(C)(C)=O)n1 [compound 25],0.19,18.7,159,2.41,8.64

# Second part, the molecule after the results:
IC50 [1] [nM],IC50 (wild-type EGFR) [nM],IC50 [2] [nM],GI50 [3] [nM],GI50 [4] [nM],SMILES
0.26,2.49,79.5,1.74,3.54,COc1cc(N2CCC3(CCN(CCF)CC3)CC2)c(-c2cnn(C)c2)cc1Nc1ncc(Cl)c(Nc2ccc3nccnc3c2P(C)(C)=O)n1 [compound 233]
0.18,0.41,46.1,2.87,4.53,COc1cc(N2CCC3(CCN(C)CC3)CC2)c(-c2cnn(C)c2)cc1Nc1ncc(Br)c(Nc2ccc3nccnc3c2P(C)(C)=O)n1 [compound 101]
0.35,3.08,116,3.2,8.9,"COc1cc(N2CCC3CCN(CCF)C3C2)c(-c2cnn(C)c2)cc1Nc1ncc(Br)c(Nc2ccc3nccnc3c2P(C)(C)=O)n1 (stereo not shown) [compound 205, (6-((5-Bromo-2-((4-(1-(2-fluoroethyl)octahydro-6H-pyrrolo[2,3-c]pyridin-6-yl)-2-methoxy-5-(1-methyl-1H-pyrazol-4-yl)phenyl)amino)pyrimidin-4-yl)amino)quinoxalin-5-yl)dimethylphosphine oxide]"
1.3,4.07,639,36.6,239,COc1cc(N2CCC(N3CCN(C)CC3)CC2)c(-c2cnn(C)c2)cc1Nc1ncc(F)c(Nc2ccc3nccnc3c2P(C)(C)=O)n1 [compound 119]
< 0.05,12.2,177,4.62,15.6,COc1cc(N2CCC3(CC2)COC3)c(-c2cnn(C)c2)cc1Nc1ncc(Br)c(Nc2ccc3nccnc3c2P(C)(C)=O)n1 [compound 15]
0.42,8.53,164,3.76,12.1,COc1cc(N2CCN(C3(C)CC3)CC2)c(-c2cnn(C)c2)cc1Nc1ncc(Br)c(Nc2ccc3nccnc3c2P(C)(C)=O)n1 [compound 229]
0.25,1.16,196,0.34,2.89,COc1cc(N2CCC(C)(O)CC2)c(-c2cnn(C)c2)cc1Nc1ncc(Br)c(Nc2ccc3nccnc3c2P(C)(C)=O)n1 [compound 142]
0.15,1.06,150,5.98,13.6,COc1cc(N2CCN(C(C)=O)CC2)c(-c2cnn(C)c2)cc1Nc1ncc(Br)c(Nc2ccc3nccnc3c2P(C)(C)=O)n1 [compound 14]
0.08,1.26,45.4,2.87,20.9,COc1cc(N2CCC(N3CCN(C)CC3)CC2)c(-c2cnn(C)c2)cc1Nc1ncc(Br)c(Nc2ccc3nccnc3c2P(C)(C)=O)n1 [compound 18]
1.31,3.13,169,2.25,8.15,COc1cc(N2CCN(C(=O)C3CC3)CC2)c(-c2cnn(C)c2)cc1Nc1ncc(Br)c(Nc2ccc3nccnc3c2P(C)(C)=O)n1 [compound 116]
